Data taken from EP4174174A1, “TAILOR-MADE EXTREMOPHILIC FUNGAL LACCASES” (priority 2021, dated 2023).
Like-named read-outs stand apart in the source and are kept apart here.

Key:
Format in all cases: biochemical
[1] = tested on: RY2 laccase variant L4 (+A458L; F392N, F396I, F460M, D263V, A458L); assay: Kinetic constants for the oxidation of ABTS and DMP by pure laccase
Experimental: (§1) Flask production and purification. The S. cerevisiae clones expressing selected laccase variants were grown in duplicate, in 100mL flasks with 30mL expression medium (containing […] and 3% ethanol) (Camarero et al. Applied and Environmental Microbiology 2012, 78,5). […] After 3 days of fermentation, cultures were treated as previously described (De Salas et al. Green Chemistry 2019 21, 5374-5385). Purification of the enzymes by High Pressure Liquid Chromatography (HPLC) was carried out in 3 chromatographic steps: two anion exchange steps using a HiPrep-QFF 16/10 column in a 100mL gradient of 0-40% elution buffer, and a MonoQ-HR 5/5 column in a 30mL gradient of 0-25% elution buffer, followed by size exclusion chromatography with a Superdex75. Fractions containing laccase activity (with 3mM ABTS in 50mM citrate-phosphate pH 3) were pooled, dialyzed in Tris-HCI pH 7 and concentrated after each chromatographic step. Enzyme purification was confirmed by the electrophoretic mobility in SDS-PAGE (12% acrylamide) stained with Coomassie brilliant blue.
(§2) To calculate Km and kcat values the average Vmax was represented versus substrate concentration and fitted to a single rectangular hyperbola function in SigmaPlot (version 14.0) software, where parameter "a" was equal to kcat and parameter "b" was equal to Km.

[2] = tested on: RY2 laccase variant L3 (+D263V; F392N, F396I, F460M, D263V); assay: as above
Experimental: as §1, §2

[3] = molecular target: RY2 laccase variant L2 (+F460M; F392N, F396I, F460M) (basidiomycete PM1, UniProt Q12571, F413N/F417I/F481M, form not given)
Chain of RY2 laccase variant L2 (+F460M; F392N, F396I, F460M) (Q12571 entry or part of it F413N/F417I/F481M, form open): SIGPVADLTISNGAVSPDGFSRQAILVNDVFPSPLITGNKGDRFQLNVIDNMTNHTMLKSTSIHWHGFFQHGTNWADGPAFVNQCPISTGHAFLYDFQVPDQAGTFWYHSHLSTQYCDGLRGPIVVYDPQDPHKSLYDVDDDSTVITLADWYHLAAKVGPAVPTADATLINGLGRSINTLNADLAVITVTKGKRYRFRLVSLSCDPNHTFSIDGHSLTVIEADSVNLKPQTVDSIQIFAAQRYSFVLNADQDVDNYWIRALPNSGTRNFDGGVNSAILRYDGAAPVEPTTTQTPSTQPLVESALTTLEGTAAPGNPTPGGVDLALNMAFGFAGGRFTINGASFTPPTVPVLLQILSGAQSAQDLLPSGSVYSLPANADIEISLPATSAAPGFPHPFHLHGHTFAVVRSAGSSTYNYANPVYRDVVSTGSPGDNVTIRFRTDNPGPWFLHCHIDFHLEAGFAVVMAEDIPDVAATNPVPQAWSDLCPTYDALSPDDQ
Experimental: as §1, §2

[4] = molecular target: RY2 laccase (parental enzyme, SEQ ID NO: 1) (basidiomycete PM1, UniProt Q12571)
Chain of RY2 laccase (parental enzyme, SEQ ID NO: 1) (Q12571 entry or part of it): as the sequence (Q12571 entry or part of it F413N/F417I/F481M, form open) above
Experimental: as §1, §2

| Compound | Km ([1]; substrate ABTS, pH 3) [µM] | kcat ([1]; substrate ABTS, pH 3) [s⁻¹] | Km ([2]; substrate ABTS, pH 3) [µM] | kcat ([2]; substrate ABTS, pH 3) [s⁻¹] | kcat ([3]; substrate ABTS, pH 3) [s⁻¹] | kcat ([4]; substrate ABTS, pH 3) [s⁻¹] | Km ([1]; substrate DMP, pH 8) [µM] | Km ([1]; substrate DMP, pH 9) [µM] | kcat ([1]; substrate DMP, pH 9) [s⁻¹] | Km ([1]; substrate DMP, pH 10) [µM] | kcat ([1]; substrate DMP, pH 10) [s⁻¹] | Km ([2]; substrate DMP, pH 8) [µM] | kcat ([2]; substrate DMP, pH 8) [s⁻¹] | Km ([2]; substrate DMP, pH 9) [µM] | kcat ([2]; substrate DMP, pH 9) [s⁻¹] | Km ([2]; substrate DMP, pH 10) [µM] | kcat ([2]; substrate DMP, pH 10) [s⁻¹] | kcat ([3]; substrate DMP, pH 8) [s⁻¹] | kcat ([3]; substrate DMP, pH 9) [s⁻¹] | kcat ([4]; substrate DMP, pH 5) [s⁻¹] |
| --- | --- | --- | --- | --- | --- | --- | --- | --- | --- | --- | --- | --- | --- | --- | --- | --- | --- | --- | --- | --- |
| CCn1c(=NN=c2sc3cc(S(=O)(=O)O)ccc3n2CC)sc2cc(S(=O)(=O)O)ccc21 [ABTS] | 680 ± 40 | 136 ± 2.7 | 460 ± 40 | 123 ± 5.5 | 231 ± 5.6 | 543 ± 17 | – | – | – | – | – | – | – | – | – | – | – | – | – | – |
| COc1cccc(OC)c1O [DMP, 2,6-dimethoxyphenol] | – | – | – | – | – | – | 1710 ± 100 | 430 ± 10 | 26 ± 0.28 | 22 ± 2 | 2 ± 0.05 | 1500 ± 120 | 82.3 ± 7.6 | 300 ± 30 | 21.7 ± 1.3 | 27 ± 1 | 0.79 ± 0.03 | 89 ± 6.2 | 9.5 ± 0.1 | 123 ± 6 |
